Measured values reported in the CheMixHub viscosity set.

Experiment: xn = mol fraction of the nth substance listed

O=CN1CCOCC1 + Brc1ccccc1
viscosity [mPa·s], 101 kPa
Details	x1 = 0.1046	x1 = 0.2081	x1 = 0.3106	x1 = 0.412	x1 = 0.5124	x1 = 0.6119	x1 = 0.7103	x1 = 0.8078	x1 = 0.9044
303.15 K	1.051	1.188	1.392	1.666	2.029	2.502	3.141	3.952	5.052
308.15 K	1.002	1.119	1.297	1.538	1.858	2.274	2.809	3.511	4.419
313.15 K	0.953	1.057	1.22	1.442	1.727	2.105	2.585	3.211	4.012

C=C(C)C(=O)OCCCC + C1CCCCC1
viscosity [mPa·s], 101 kPa
Details	298.15 K	308.15 K
x1 = 0.056	0.866	0.737
x1 = 0.1555	0.835	0.711
x1 = 0.2562	0.812	0.692
x1 = 0.3534	0.797	0.68
x1 = 0.4548	0.789	0.673
x1 = 0.4924	0.788	0.673
x1 = 0.5528	0.788	0.673
x1 = 0.6497	0.794	0.678
x1 = 0.7645	0.81	0.692
x1 = 0.8529	0.83	0.708
x1 = 0.9568	0.861	0.735

NCc1ccccc1 + C1CCOC1
303.15 K, 101 kPa
Details	viscosity [mPa·s]
x1 = 0.0768	0.522
x1 = 0.1577	0.576
x1 = 0.2429	0.636
x1 = 0.333	0.705
x1 = 0.4282	0.785
x1 = 0.529	0.876
x1 = 0.636	0.981
x1 = 0.7497	1.104
x1 = 0.8708	1.247

NCc1ccccc1 + C1COCCO1
303.15 K, 101 kPa
Details	viscosity [mPa·s]
x1 = 0.0802	1.116
x1 = 0.164	1.158
x1 = 0.2516	1.199
x1 = 0.3434	1.238
x1 = 0.4396	1.276
x1 = 0.5406	1.311
x1 = 0.6467	1.343
x1 = 0.7584	1.372
x1 = 0.8759	1.396

C=C(C)C(=O)OCCCC + CC#N
viscosity [mPa·s], 101 kPa
Details	298.15 K	303.15 K	308.15 K	313.15 K	318.15 K
x2 = 0.0681	0.8436	0.7784	0.7223	0.6777	0.6423
x2 = 0.1359	0.8101	0.7487	0.6958	0.6537	0.6202
x2 = 0.1976	0.7793	0.7213	0.6713	0.6314	0.5995
x2 = 0.2728	0.7411	0.6872	0.6407	0.6035	0.5735
x2 = 0.3442	0.7043	0.6543	0.6111	0.5764	0.5483
x2 = 0.4143	0.6677	0.6215	0.5815	0.5492	0.5229
x2 = 0.4658	0.6405	0.5971	0.5594	0.5289	0.5039
x2 = 0.5243	0.6094	0.5691	0.534	0.5055	0.482
x2 = 0.5649	0.5876	0.5495	0.5162	0.4891	0.4665
x2 = 0.639	0.5475	0.5133	0.4834	0.4587	0.4379
x2 = 0.7112	0.508	0.4776	0.4508	0.4285	0.4095
x2 = 0.7836	0.468	0.4413	0.4178	0.3978	0.3805
x2 = 0.8558	0.4277	0.4048	0.3844	0.3668	0.3512
x2 = 0.928	0.3871	0.3679	0.3506	0.3353	0.3214

CCC(=O)c1ccccc1 + CC#N
308.15 K, 101 kPa
Details	viscosity [mPa·s]
x1 = 0.0418	0.3347
x1 = 0.0922	0.3774
x1 = 0.1459	0.4272
x1 = 0.2084	0.4875
x1 = 0.2804	0.5679
x1 = 0.3757	0.6605
x1 = 0.4796	0.7806
x1 = 0.6093	0.9478
x1 = 0.7791	1.188
x1 = 0.9397	1.426

OCCO + CC#N
viscosity [mPa·s], 100 kPa
Details	x2 = 0.1016	x2 = 0.2004	x2 = 0.3019	x2 = 0.3984	x2 = 0.4901	x2 = 0.6353	x2 = 0.6987	x2 = 0.8061	x2 = 0.8984
293.15 K	13	8.4	5.53	3.48	2.4	1.35	1.06	0.71	0.51
298.15 K	11.2	7.41	4.87	3.19	2.21	1.25	0.98	0.66	0.48
303.15 K	9.25	6.17	4.25	2.85	2.01	1.17	0.93	0.63	0.45

S=C=S + CC(C)=O
viscosity [mPa·s]
Details	293.15 K	298.15 K
101 kPa, x1 = 0.035	0.32	0.3065
101 kPa, x1 = 0.107	0.316	0.3025
101 kPa, x1 = 0.167	0.315	0.3015
101 kPa, x1 = 0.202	0.314	0.301
101 kPa, x1 = 0.304	0.316	0.3015
101 kPa, x1 = 0.408	0.319	–
101 kPa, x1 = 0.498	0.324	0.31
101 kPa, x1 = 0.633	0.3325	0.3185
101 kPa, x1 = 0.762	0.343	–
101 kPa, x1 = 0.89	0.354	0.3365
101.33 kPa, x2 = 0.1384	–	0.3361
101.33 kPa, x2 = 0.2716	–	0.3258
101.33 kPa, x2 = 0.3443	–	0.3242
101.33 kPa, x2 = 0.4624	–	0.3103
101.33 kPa, x2 = 0.5524	–	0.3035
101.33 kPa, x2 = 0.6431	–	0.3003
101.33 kPa, x2 = 0.7358	–	0.2975
101.33 kPa, x2 = 0.8389	–	0.2974
101.33 kPa, x2 = 0.9171	–	0.2993

NCc1ccccc1 + CC(C)CCO
viscosity [mPa·s], 101.33 kPa
Details	x1 = 0.0999	x1 = 0.1999	x1 = 0.3	x1 = 0.4	x1 = 0.5	x1 = 0.6	x1 = 0.7	x1 = 0.8	x1 = 0.9
298.15 K	3.425	3.149	2.901	2.684	2.474	2.284	2.103	1.941	1.806
303.15 K	2.914	2.672	2.455	2.259	2.099	1.937	1.803	1.683	1.582
308.15 K	2.536	2.319	2.142	1.979	1.833	1.706	1.602	1.51	1.441

CC(C)NC(C)C + CC(C)CO
viscosity [mPa·s], 100 kPa
Details	298.15 K	303.15 K	308.15 K
x1 = 0.0559	2.916	2.467	2.005
x1 = 0.1015	2.616	2.232	1.833
x1 = 0.1519	2.295	1.98	1.662
x1 = 0.2069	1.995	1.738	1.459
x1 = 0.2516	1.765	1.549	1.319
x1 = 0.3055	1.507	1.346	1.155
x1 = 0.3944	1.194	1.067	0.931
x1 = 0.4988	0.926	0.837	0.743
x1 = 0.6017	0.73	0.674	0.607
x1 = 0.7131	0.586	0.553	0.509
x1 = 0.8018	0.504	0.485	0.448
x1 = 0.865	0.455	0.441	0.409
x1 = 0.9062	0.433	0.419	0.395
x1 = 0.9423	0.409	0.396	0.379

CC(C)NC(C)C + CC(C)O
viscosity [mPa·s], 100 kPa
Details	298.15 K	303.15 K	308.15 K
x1 = 0.0499	1.789	1.565	1.397
x1 = 0.1033	1.565	1.393	1.253
x1 = 0.1405	1.437	1.28	1.153
x1 = 0.2062	1.245	1.108	1.004
x1 = 0.2498	1.123	1.012	0.922
x1 = 0.303	1.003	0.904	0.825
x1 = 0.4121	0.809	0.735	0.677
x1 = 0.4955	0.698	0.639	0.593
x1 = 0.5984	0.592	0.551	0.513
x1 = 0.6974	0.52	0.498	0.466
x1 = 0.7902	0.468	0.447	0.421
x1 = 0.8632	0.434	0.419	0.398
x1 = 0.9067	0.412	0.401	0.382
x1 = 0.9459	0.397	0.388	0.3694

NCc1ccccc1 + CCC(C)(C)O
viscosity [mPa·s], 101.33 kPa
Details	x1 = 0.1	x1 = 0.2001	x1 = 0.3	x1 = 0.4	x1 = 0.5	x1 = 0.6	x1 = 0.6999	x1 = 0.7994	x1 = 0.8998
298.15 K	3.228	2.988	2.781	2.576	2.394	2.223	2.067	1.927	1.792
303.15 K	2.641	2.463	2.289	2.143	1.995	1.882	1.773	1.668	1.578
308.15 K	2.193	2.043	1.919	1.793	1.696	1.609	1.533	1.468	1.422

NCc1ccccc1 + CCC(C)CO
viscosity [mPa·s], 101.33 kPa
Details	x1 = 0.1	x1 = 0.2	x1 = 0.3001	x1 = 0.3999	x1 = 0.5	x1 = 0.6	x1 = 0.6998	x1 = 0.7989	x1 = 0.8999
298.15 K	4.232	3.772	3.382	3.039	2.708	2.435	2.181	1.984	1.796
303.15 K	3.472	3.103	2.773	2.478	2.243	2.048	1.849	1.691	1.572
308.15 K	2.453	2.227	2.02	1.837	1.711	1.595	1.5	1.423	1.377

NCc1ccccc1 + CCCC(C)O
viscosity [mPa·s], 101.33 kPa
Details	x1 = 0.1	x1 = 0.2002	x1 = 0.3001	x1 = 0.4001	x1 = 0.4997	x1 = 0.6	x1 = 0.6989	x1 = 0.8	x1 = 0.8998
298.15 K	3.179	2.906	2.676	2.466	2.274	2.11	1.976	1.854	1.75
303.15 K	2.626	2.395	2.192	2.038	1.893	1.765	1.666	1.587	1.532
308.15 K	2.199	2.034	1.884	1.759	1.642	1.559	1.482	1.436	1.401

CCOC(=O)CCBr + CCCCCC
303.15 K, 101 kPa
Details	viscosity [mPa·s]
x1 = 0.2142	0.3919
x1 = 0.4043	0.55
x1 = 0.5019	0.674
x1 = 0.6029	0.8315
x1 = 0.8046	1.263

CCCCCCCCCCCCCCCCCC + CCCCCCC
101 kPa, x2 = 0.5
Details	viscosity [mPa·s]
298 K	1.73
318 K	1.241

CCCCCCCCCc1ccccc1 + CCCCCCC
313.15 K, 100 kPa
Details	viscosity [mPa·s]
x2 = 0.097	1.82
x2 = 0.265	1.398
x2 = 0.405	1.111
x2 = 0.523	0.918
x2 = 0.671	0.691
x2 = 0.754	0.59
x2 = 0.86	0.411

CCCCCCCCCc1ccccc1 + CCCCCCCCCCCC
viscosity [mPa·s], 102 kPa
Details	x1 = 0.1006	x1 = 0.2	x1 = 0.3002	x1 = 0.4001	x1 = 0.5	x1 = 0.5999	x1 = 0.7004	x1 = 0.8064	x1 = 0.8998
293.15 K	1.59	1.69	1.81	1.94	2.09	2.25	2.44	2.66	2.88
303.15 K	1.33	1.41	1.5	1.61	1.72	1.84	1.99	2.15	2.31
313.15 K	1.13	1.2	1.27	1.35	1.44	1.54	1.65	1.78	1.9
323.15 K	0.971	1.03	1.09	1.16	1.23	1.31	1.4	1.5	1.59
